Reference: patent US20030022871A1, “Method for modulating tumor growth and metastasis of tumor cells” (priority 2002, published 2003)

Legend:
[1] = target: T1, Id1 (Homo sapiens, UniProt P41134); assay: Gel shift: Id1 antagonism of E47 binding to radiolabeled DNA; assay type: biochemical
T1 sequence (P41134 1-155): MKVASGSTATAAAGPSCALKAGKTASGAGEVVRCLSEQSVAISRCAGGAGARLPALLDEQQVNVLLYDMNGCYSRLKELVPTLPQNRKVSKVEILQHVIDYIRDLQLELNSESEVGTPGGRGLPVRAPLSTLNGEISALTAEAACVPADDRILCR
Method: Purified Id1 and its target protein E12 are mixed to together in vitro, and the ability of Id1 to antagonize DNA binding capacity of E12 is measured. To measure E12 DNA binding activity, the mixtures were incubated with radiolabeled DNA sequences to which E12 binds and the protein/DNA complexes resolved on a native polyacrylamide gel as described [Benezra, 1994 #463].
In this experiment, 50 nanograms of E47 protein (described in Example I) was present in reaction mixtures of 100, 200, and 400 nanograms of Id1, designated +, ++, and +++ respectively in FIG. 2. Tetracycline was added to the reactions as indicated (+) to about 200 Tg/ml final concentration. Radiolabeled DNA to which E47 binds was then introduced in each mixture. […] Each of the mixtures was permitted to incubate at room temperature for about 30 minutes. Then, the mixtures were electrophoresed in an 8% native polyacrylamide gel as described in Benezra, 1994.
After electrophoresing the samples, the gel was dried and exposed to autoradiographic film to make an autoradiograph of the gel.

[2] = target: T1, Id1; assay: 4R-TK-CAT reporter assay with E12 and Id1 plasmids in mammalian culture cells; assay type: cell-based
Description: (§1) Plasmids capable of expressing proteins when introduced into mammalian culture cells were used to test the activity of those proteins. In the assay depicted below, a plasmid that contains sequences to which the E12 protein binds upstream of a reporter gene (4R-TK-CAT) ix mixed with an E12 encoding plasmid and an Id plasmid to see if Id can inhibit the ability of E12 protein to bind and activate the reporter gene, in a similar to that described in Pesce, 1993 #163. If E12 binds to its sequence in the 4R-TK-CAT vector, it causes expression of the chloramphenical acetyltransferase (CAT) gene. The protein product of the CAT gene has an enzymatic activity that can be quantified. Uptake of the various plasmids was normalized to the expression of luciferase activity from a separate plasmid added in equal amounts to all cultures.

[3] = target: T2, E12 (Homo sapiens, UniProt P15923); assay: 4R-TK-CAT reporter assay with E12 plasmid alone in mammalian culture cells; assay type: cell-based; settings: E12 plasmid without Id1, tetracycline 100
T2 construct: expressed in transfected cells
T2 sequence (P15923 1-654): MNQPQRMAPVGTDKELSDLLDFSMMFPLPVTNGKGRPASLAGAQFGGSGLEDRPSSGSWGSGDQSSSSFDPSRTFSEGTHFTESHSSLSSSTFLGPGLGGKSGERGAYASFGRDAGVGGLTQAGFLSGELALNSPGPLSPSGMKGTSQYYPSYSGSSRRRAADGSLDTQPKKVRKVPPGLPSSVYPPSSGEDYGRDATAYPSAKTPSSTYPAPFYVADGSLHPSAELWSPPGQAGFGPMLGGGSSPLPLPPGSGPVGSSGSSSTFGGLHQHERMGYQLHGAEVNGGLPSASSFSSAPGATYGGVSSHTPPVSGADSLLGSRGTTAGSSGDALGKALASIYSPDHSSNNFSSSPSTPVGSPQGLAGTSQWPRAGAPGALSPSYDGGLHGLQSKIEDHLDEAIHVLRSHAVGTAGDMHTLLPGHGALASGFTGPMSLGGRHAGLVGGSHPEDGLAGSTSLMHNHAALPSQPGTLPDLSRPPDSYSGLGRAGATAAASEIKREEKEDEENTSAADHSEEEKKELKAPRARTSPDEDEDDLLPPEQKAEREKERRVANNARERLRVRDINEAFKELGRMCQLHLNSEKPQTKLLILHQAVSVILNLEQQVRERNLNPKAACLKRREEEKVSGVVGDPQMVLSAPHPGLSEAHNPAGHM
Description: as §1

[4] = target: T3, MyoD (Homo sapiens, UniProt P15172); assay: Native polyacrylamide gel binding of tritiated tetracycline to protein; settings: 10-30-fold molar excess of tritiated tetracycline, PBS, room temperature 30 minutes, 8% native gel autoradiogram
T3 sequence (P15172 1-320): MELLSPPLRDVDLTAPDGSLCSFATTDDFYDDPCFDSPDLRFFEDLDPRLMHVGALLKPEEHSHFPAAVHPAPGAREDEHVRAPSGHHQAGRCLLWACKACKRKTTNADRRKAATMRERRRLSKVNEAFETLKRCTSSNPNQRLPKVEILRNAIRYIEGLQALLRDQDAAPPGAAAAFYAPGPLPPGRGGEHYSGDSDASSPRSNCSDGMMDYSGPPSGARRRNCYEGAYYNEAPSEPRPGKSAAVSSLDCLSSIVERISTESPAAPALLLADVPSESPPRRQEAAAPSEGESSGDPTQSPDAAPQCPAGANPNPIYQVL
Method: (§2) Radiolabeled tetracycline (tritiated) was mixed with purified Id1 protein and other proteins separately to permit contact between the labeled tetracycline and the proteins. […] The complexes could then be visualized in an autoradiogram of the gel, e.g., exposure of the gel to x-ray film.
(§3) In this experiment, a 10-30-fold molar excess of tritiated tetracycline was added to the indicated proteins separately in 10 Tl reaction tube containing one of the proteins and phosphate buffered saline at physiological pH. Proteins used in this experiment were:
(§4) The mixtures were incubated at room temperature for 30 minutes. Bromophenol blue was added to each sample at 0.01% (v/v). The samples were then electrophoresed on an 8% native polyacrylamide gel.
(§5) After electrophoresing the samples, the gel was dried and exposed to autoradiographic film for 12 hours to make an autoradiogram of the gel.

[5] = tested on: Id old, an old preparation of Id in which the protein's conformation is perturbed; assay: as above; settings: 10-30-fold molar excess of tritiated tetracycline, PBS, room temperature 30 minutes, 8% native gel autoradiogram
Method: as §2, §3, §4, §5

[6] = tested on: Hsp90 (heat shock protein 90); assay: as above; settings: 10-30-fold molar excess of tritiated tetracycline, PBS, room temperature 30 minutes, 8% native gel autoradiogram
Method: as §2, §3, §4, §5

[7] = tested on: Id1 new, the normal protein (native Id1); assay: as above; settings: 10-30-fold molar excess of tritiated tetracycline, PBS, room temperature 30 minutes, 8% native gel autoradiogram
Method: as §2, §3, §4, §5

[8] = target: T4, E47 (Homo sapiens, UniProt P15923); assay: as above; settings: 10-30-fold molar excess of tritiated tetracycline, PBS, room temperature 30 minutes, 8% native gel autoradiogram
T4 sequence (P15923 1-651 isoform P15923-2): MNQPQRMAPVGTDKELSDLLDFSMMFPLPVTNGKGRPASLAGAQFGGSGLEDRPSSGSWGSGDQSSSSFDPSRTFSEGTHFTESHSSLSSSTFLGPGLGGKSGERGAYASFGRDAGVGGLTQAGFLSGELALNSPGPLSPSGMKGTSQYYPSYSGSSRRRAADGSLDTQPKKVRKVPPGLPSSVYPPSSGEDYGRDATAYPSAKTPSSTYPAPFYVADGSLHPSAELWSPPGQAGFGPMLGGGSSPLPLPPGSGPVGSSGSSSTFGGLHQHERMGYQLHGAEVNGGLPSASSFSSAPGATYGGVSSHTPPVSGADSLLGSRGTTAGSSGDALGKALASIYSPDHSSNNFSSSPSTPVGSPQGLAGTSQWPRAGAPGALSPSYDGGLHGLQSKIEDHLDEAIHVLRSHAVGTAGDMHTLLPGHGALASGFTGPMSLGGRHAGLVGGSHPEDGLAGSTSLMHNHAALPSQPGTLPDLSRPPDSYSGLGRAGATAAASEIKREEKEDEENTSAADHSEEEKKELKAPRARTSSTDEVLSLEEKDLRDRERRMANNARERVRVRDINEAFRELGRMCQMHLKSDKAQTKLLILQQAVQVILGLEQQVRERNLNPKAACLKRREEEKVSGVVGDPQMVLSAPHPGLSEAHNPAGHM
Method: as §2, §3, §4, §5

[9] = target: T2, E12; assay: as above; settings: 10-30-fold molar excess of tritiated tetracycline, PBS, room temperature 30 minutes, 8% native gel autoradiogram
Method: as §2, §3, §4, §5

Q: What does the source list for CN(C)[C@@H]1C(O)=C(C(N)=O)C(=O)[C@@]2(O)C(O)=C3C(=O)c4c(O)cccc4[C@@](C)(O)[C@H]3C[C@@H]12 [tetracycline, [4S-(4I,5aI,5aI,6J,12aI)]-4-(Dimethylamino)-1,4,4a,5,5a,6-11,12a-octahydro-3,6, 10,12,12a-peiztaiydroxy-6-methyl-1,11-dioxo-2-naphthacenecarboxamide]?
A: E47/DNA complex band intensity with tetracycline (lane 4) versus without (lane 3) ([1]; 50 nanograms E47, 100 nanograms Id1, tetracycline about 200 Tg/ml, same said for lanes 6 vs 5 and 8 vs 7 (200, 400 nanograms Id1)): much more intense; Effect on Id activity, i.e. dimerizing with a protein member of the HLH super family, in vitro ([1]; tetracycline about 200 Tg/ml, 50 nanograms E47, 100-400 nanograms Id1): clearly inhibits Id activity; Effect of tetracycline on Id1 inhibition of E12 (4R-TK-CAT reporter), Id1 high ([2]; Id1 10:1 molar excess over E12, tetracycline 100): no longer effective; E12 binding activity (4R-TK-CAT reporter) in presence of tetracycline, Id1 (low) ([2]; Id1 plasmid at 3:1 molar excess of E12, tetracycline 100): partially restored; Effect of tetracycline on E12 activation of 4R-TK-CAT [3]: not effected; Binding of radiolabeled tetracycline to MyoD (lane 5) [4]: did not bind; Binding of radiolabeled tetracycline to old Id having a perturbed conformation (lane 3) [5]: no radiolabeled tetracycline was detected; Binding of radiolabeled tetracycline to Hsp90 (lane 1) [6]: did not bind; Binding of radiolabeled tetracycline to native Id1 (lane 4) [7]: bound to native Id1; Binding of radiolabeled tetracycline to E47 (lane 6) [8]: did not bind; Binding of radiolabeled tetracycline to E12 (lane 2) [9]: did not bind
